Six molecules from publication PMC12621184, “Synthesis and Pharmacological Characterization of Nociceptin/Orphanin FQ Dimeric Ligands” (Journal of Medicinal Chemistry, 2025) can be followed below.

Bridge positions count the residues as written; N and C are the ends. Peptide text beside a SMILES is read from it. I, II: the chains in the order shown.

Test [1] has as its target T1, human NOP (Homo sapiens, UniProt P41146). Description: Calcium mobilization assay, CHO cells with NOP receptor and chimeric G protein. The test is classed as cell-based. Set-up: expressed in transfected cells. To be noted: for EC50: CHO cells coexpressing human NOP and Gαqi5, Fluo-4, 37 °C, mean (CL95%), N = 5 experiments in duplicate, read-out: Ca^2+ mobilization pEC50 (CL95%) (converted); for Ca^2+ mobilization E max ± sem: CHO cells coexpressing human NOP and Gαqi5, maximum change in percentage over baseline fluorescence, mean ± sem, N = 5 in duplicate. The protocol:
Chinese hamster ovary (CHO) cells stably coexpressing the human NOP, μ, or κ opioid receptors and the Gαqi5 protein or the human δ and the GαqG66Di5 protein were used in this assay. , Cells were cultured in DMEM/F-12 (1:1) medium supplemented with 10% FBS, 2 mM L-glutamine, […], 100 IU/mL penicillin, and 100 IU/mL streptomycin. Cells were maintained at 37 °C in a humidified atmosphere with 5% CO2 and were seeded at 50 000 cells/well into 96-well black, clear-bottom plates 24 h before test. Loading for 45 min with a solution consisting of HBSS supplemented with 2.5 mM probenecid, 3 μM Fluo-4 AM, and 0.01% pluronic acid ensures the calcium-sensitive dye (Fluo-4) reaches the needed concentration inside the cell, while the exchange of the solution with 100 μL/well of buffer consisting of HBSS with 20 mM HEPES, 2.5 mM probenecid, and 500 μM Brilliant Black allows for fluorescence background to decrease. Serial dilutions of ligands were prepared in HBSS buffer with 20 mM HEPES and 0.02% bovine serum albumin (BSA) to minimize the ligands’ stickiness to plasticware. The automated microplate reader FlexStation II (Molecular Devices, CA, US) was employed at 37 °C to detect changes in fluorescence intensity. The effects of all compounds were expressed as the maximum change in percentage over the baseline fluorescence measured in samples treated with vehicles.
(§1) Concentration-response curves to agonists were analyzed by a four-parameter logistic nonlinear regression model: Effect = baseline + (E max – baseline)/(1 + 10^((logEC50–log[ligand])slope)). […] Experimental data were expressed as mean ± sem of at least 5 experiments. Potency values were expressed as the mean and CL95%. In vitro E max values were analyzed by one-way ANOVA, while in vivo latency data were evaluated by one-way ANOVA followed by Dunnett’s post hoc test. The proportion of mice losing the righting reflex was compared by Fisher’s exact test performed on raw data. GraphPad Prism 10.0 software was used for all of the analyses. The terminology employed is consistent with the International Union of Basic and Clinical Pharmacology (IUPHAR) recommendations. ,
In general terms: Calcium assays in cells follow changes in intracellular calcium, usually with a dye or a luminescent sensor.

In test [2] the target is T1, human NOP. The test can be described thus: NOP receptor–G protein interaction BRET assay. It counts as biochemical. Also on record: expressed in transfected cells; host or cells: membranes of HEK293 cells stably coexpressing NOP-RLuc and Gβ1-RGFP. The note with it: N = 5 experiments in duplicate; for NOP–G protein interaction E max ± sem: effects normalized to N/OFQ-NH2 (E max = 1), mean ± sem; for EC50: membranes from HEK293 cells coexpressing NOP-RLuc and Gβ1-RGFP, room temperature, mean (CL95%), read-out: NOP–G protein interaction pEC50 (CL95%) (converted). Here is the method:
A BRET interaction assay was used, as previously detailed in ref , to study the propensity of ligands to evoke interaction between the NOP receptor and to G protein. Membranes taken from HEK293 cells stably coexpressing the fusoproteins NOP-RLuc and Gβ1-RGFP were used. Such cells were grown in DMEM medium supplemented with 10% FBS, 2 mM L-glutamine, […] G418, […] hygromycin B, 100 IU/mL penicillin, and 100 IU/mL streptomycin in a humidified atmosphere with 5% CO2 at 37 °C. Cell membranes were thawed and resuspended in PBS supplemented with 0.01% BSA before the assay, and an amount of 3 μg of total protein was dispensed in each of the 96 wells together with 2 μM Prolume Purple Coelenterazine. All experiments were carried out at room temperature. Ligands were added, and averaged BRET ratios from 10 min measurements were computed. BRET ratios were computed as counts per second (CPS) obtained on a Victor Nivo (PerkinElmer) with 405 (10) nm and 510 (30) nm bandpass filters. Vehicles’ BRET ratios were derived from light passed through 510 divided by that passed through 405 filters. Vehicles BRET values were subtracted from all computations, and data sets were normalized as a fraction of N/OFQ maximal effects.
as §1
Background: In BRET a luciferase serves as donor, and the signal depends on an acceptor being close.

T1 sequence (P41146 whole entry): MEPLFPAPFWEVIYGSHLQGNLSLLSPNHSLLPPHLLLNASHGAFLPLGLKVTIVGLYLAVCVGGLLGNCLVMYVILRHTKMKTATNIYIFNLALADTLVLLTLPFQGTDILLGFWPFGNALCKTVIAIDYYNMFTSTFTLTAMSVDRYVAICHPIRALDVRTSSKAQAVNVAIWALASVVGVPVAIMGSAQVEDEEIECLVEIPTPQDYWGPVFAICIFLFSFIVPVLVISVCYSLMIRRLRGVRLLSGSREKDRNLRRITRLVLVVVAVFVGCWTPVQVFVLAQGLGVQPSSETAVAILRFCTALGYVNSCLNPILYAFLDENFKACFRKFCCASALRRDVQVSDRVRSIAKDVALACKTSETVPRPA

As for `CC(C)C[C@H](NC(=O)[C@H](CCCCN)NC(=O)[C@H](CCCNC(=N)N)NC(=O)[C@H](C)NC(=O)[C@H](CO)NC(=O)[C@H](CCCCN)NC(=O)[C@H](CCCNC(=N)N)NC(=O)[C@H](CSSC[C@H](NC(=O)CNC(=O)[C@@H](NC(=O)[C@H](Cc1ccccc1)NC(=O)CNC(=O)CNC(=O)[C@@H](N)Cc1ccccc1)[C@@H](C)O)C(=O)N[C@@H](CCCNC(=N)N)C(=O)N[C@@H](CCCCN)C(=O)N[C@@H](CO)C(=O)N[C@@H](C)C(=O)N[C@@H](CCCNC(=N)N)C(=O)N[C@@H](CCCCN)C(=O)N[C@@H](CC(C)C)C(=O)N[C@@H](C)C(=O)N[C@@H](CC(N)=O)C(=O)N[C@@H](CCC(N)=O)C(N)=O)NC(=O)CNC(=O)[C@@H](NC(=O)[C@H](Cc1ccccc1)NC(=O)CNC(=O)CNC(=O)[C@@H](N)Cc1ccccc1)[C@@H](C)O)C(=O)N[C@@H](C)C(=O)N[C@@H](CC(N)=O)C(=O)N[C@@H](CCC(N)=O)C(N)=O` [1a, [[Cys^7]N/OFQ-NH2]2] (I: H-FGGFTGCRKSARKLANQ-NH2 / II: H-FGGFTGCRKSARKLANQ-NH2; disulfide I:7-II:7), at human NOP [1], the EC50 was 26.9 nM and the “Ca^2+ mobilization E max ± sem” value stood at 293 ± 18 % over the baseline. Besides, at human NOP [2], the “NOP–G protein interaction E max ± sem” value stood at 1.09 ± 0.09 and the EC50 was 1.95 nM.

Consider `CC(C)C[C@H](NC(=O)[C@H](CCCCN)NC(=O)[C@H](CCCNC(=N)N)NC(=O)[C@H](C)NC(=O)[C@H](CO)NC(=O)[C@H](CCCCN)NC(=O)[C@H](CSSC[C@H](NC(=O)[C@H](C)NC(=O)CNC(=O)[C@@H](NC(=O)[C@H](Cc1ccccc1)NC(=O)CNC(=O)CNC(=O)[C@@H](N)Cc1ccccc1)[C@@H](C)O)C(=O)N[C@@H](CCCCN)C(=O)N[C@@H](CO)C(=O)N[C@@H](C)C(=O)N[C@@H](CCCNC(=N)N)C(=O)N[C@@H](CCCCN)C(=O)N[C@@H](CC(C)C)C(=O)N[C@@H](C)C(=O)N[C@@H](CC(N)=O)C(=O)N[C@@H](CCC(N)=O)C(N)=O)NC(=O)[C@H](C)NC(=O)CNC(=O)[C@@H](NC(=O)[C@H](Cc1ccccc1)NC(=O)CNC(=O)CNC(=O)[C@@H](N)Cc1ccccc1)[C@@H](C)O)C(=O)N[C@@H](C)C(=O)N[C@@H](CC(N)=O)C(=O)N[C@@H](CCC(N)=O)C(N)=O` [1b, [[Cys^8]N/OFQ-NH2]2] (I: H-FGGFTGACKSARKLANQ-NH2 / II: H-FGGFTGACKSARKLANQ-NH2; disulfide I:8-II:8), for which the EC50 on human NOP [1] was 43.7 nM; at human NOP [2], 9.12 nM. The “Ca^2+ mobilization E max ± sem” value at human NOP [1] worked out at 322 ± 20 % over the baseline.

For `CC(C)C[C@H](NC(=O)[C@H](CCCCN)NC(=O)[C@H](CCCNC(=N)N)NC(=O)[C@H](C)NC(=O)[C@H](CO)NC(=O)[C@H](CSSC[C@H](NC(=O)[C@H](CCCNC(=N)N)NC(=O)[C@H](C)NC(=O)CNC(=O)[C@@H](NC(=O)[C@H](Cc1ccccc1)NC(=O)CNC(=O)CNC(=O)[C@@H](N)Cc1ccccc1)[C@@H](C)O)C(=O)N[C@@H](CO)C(=O)N[C@@H](C)C(=O)N[C@@H](CCCNC(=N)N)C(=O)N[C@@H](CCCCN)C(=O)N[C@@H](CC(C)C)C(=O)N[C@@H](C)C(=O)N[C@@H](CC(N)=O)C(=O)N[C@@H](CCC(N)=O)C(N)=O)NC(=O)[C@H](CCCNC(=N)N)NC(=O)[C@H](C)NC(=O)CNC(=O)[C@@H](NC(=O)[C@H](Cc1ccccc1)NC(=O)CNC(=O)CNC(=O)[C@@H](N)Cc1ccccc1)[C@@H](C)O)C(=O)N[C@@H](C)C(=O)N[C@@H](CC(N)=O)C(=O)N[C@@H](CCC(N)=O)C(N)=O` [1c, [[Cys^9]N/OFQ-NH2]2] (I: H-FGGFTGARCSARKLANQ-NH2 / II: H-FGGFTGARCSARKLANQ-NH2; disulfide I:9-II:9), at human NOP [1], the EC50 was 5.01 nM and the “Ca^2+ mobilization E max ± sem” value worked out at 289 ± 18 % over the baseline. Besides, the EC50 at human NOP [2] was 1.35 nM.

With `CC(C)C[C@H](NC(=O)[C@H](CCCCN)NC(=O)[C@H](CCCNC(=N)N)NC(=O)[C@H](C)NC(=O)[C@H](CSSC[C@H](NC(=O)[C@H](CCCCN)NC(=O)[C@H](CCCNC(=N)N)NC(=O)[C@H](C)NC(=O)CNC(=O)[C@@H](NC(=O)[C@H](Cc1ccccc1)NC(=O)CNC(=O)CNC(=O)[C@@H](N)Cc1ccccc1)[C@@H](C)O)C(=O)N[C@@H](C)C(=O)N[C@@H](CCCNC(=N)N)C(=O)N[C@@H](CCCCN)C(=O)N[C@@H](CC(C)C)C(=O)N[C@@H](C)C(=O)N[C@@H](CC(N)=O)C(=O)N[C@@H](CCC(N)=O)C(N)=O)NC(=O)[C@H](CCCCN)NC(=O)[C@H](CCCNC(=N)N)NC(=O)[C@H](C)NC(=O)CNC(=O)[C@@H](NC(=O)[C@H](Cc1ccccc1)NC(=O)CNC(=O)CNC(=O)[C@@H](N)Cc1ccccc1)[C@@H](C)O)C(=O)N[C@@H](C)C(=O)N[C@@H](CC(N)=O)C(=O)N[C@@H](CCC(N)=O)C(N)=O` [1d, [[Cys^10]N/OFQ-NH2]2] (I: H-FGGFTGARKCARKLANQ-NH2 / II: H-FGGFTGARKCARKLANQ-NH2; disulfide I:10-II:10), on human NOP [1], the EC50 was 1.91 nM and the “Ca^2+ mobilization E max ± sem” value is on record as 305 ± 42 % over the baseline. Also, on human NOP [2], the EC50 was 0.141 nM.

Regarding `CC(C)C[C@H](NC(=O)[C@H](CCCCN)NC(=O)[C@H](CSSC[C@H](NC(=O)[C@H](C)NC(=O)[C@H](CO)NC(=O)[C@H](CCCCN)NC(=O)[C@H](CCCNC(=N)N)NC(=O)[C@H](C)NC(=O)CNC(=O)[C@@H](NC(=O)[C@H](Cc1ccccc1)NC(=O)CNC(=O)CNC(=O)[C@@H](N)Cc1ccccc1)[C@@H](C)O)C(=O)N[C@@H](CCCCN)C(=O)N[C@@H](CC(C)C)C(=O)N[C@@H](C)C(=O)N[C@@H](CC(N)=O)C(=O)N[C@@H](CCC(N)=O)C(N)=O)NC(=O)[C@H](C)NC(=O)[C@H](CO)NC(=O)[C@H](CCCCN)NC(=O)[C@H](CCCNC(=N)N)NC(=O)[C@H](C)NC(=O)CNC(=O)[C@@H](NC(=O)[C@H](Cc1ccccc1)NC(=O)CNC(=O)CNC(=O)[C@@H](N)Cc1ccccc1)[C@@H](C)O)C(=O)N[C@@H](C)C(=O)N[C@@H](CC(N)=O)C(=O)N[C@@H](CCC(N)=O)C(N)=O` [1f, [[Cys^12]N/OFQ-NH2]2] (I: H-FGGFTGARKSACKLANQ-NH2 / II: H-FGGFTGARKSACKLANQ-NH2; disulfide I:12-II:12), at human NOP [1], the EC50 is 3.02 nM and the “Ca^2+ mobilization E max ± sem” value stood at 346 ± 19 % over the baseline. In addition, on human NOP [2], the “NOP–G protein interaction E max ± sem” value was found to be 1.07 ± 0.12 and the EC50 was 1.26 nM.

Consider `CC(C)C[C@H](NC(=O)[C@H](CSSC[C@H](NC(=O)[C@H](CCCNC(=N)N)NC(=O)[C@H](C)NC(=O)[C@H](CO)NC(=O)[C@H](CCCCN)NC(=O)[C@H](CCCNC(=N)N)NC(=O)[C@H](C)NC(=O)CNC(=O)[C@@H](NC(=O)[C@H](Cc1ccccc1)NC(=O)CNC(=O)CNC(=O)[C@@H](N)Cc1ccccc1)[C@@H](C)O)C(=O)N[C@@H](CC(C)C)C(=O)N[C@@H](C)C(=O)N[C@@H](CC(N)=O)C(=O)N[C@@H](CCC(N)=O)C(N)=O)NC(=O)[C@H](CCCNC(=N)N)NC(=O)[C@H](C)NC(=O)[C@H](CO)NC(=O)[C@H](CCCCN)NC(=O)[C@H](CCCNC(=N)N)NC(=O)[C@H](C)NC(=O)CNC(=O)[C@@H](NC(=O)[C@H](Cc1ccccc1)NC(=O)CNC(=O)CNC(=O)[C@@H](N)Cc1ccccc1)[C@@H](C)O)C(=O)N[C@@H](C)C(=O)N[C@@H](CC(N)=O)C(=O)N[C@@H](CCC(N)=O)C(N)=O` [1g, [[Cys^13]N/OFQ-NH2]2] (I: H-FGGFTGARKSARCLANQ-NH2 / II: H-FGGFTGARKSARCLANQ-NH2; disulfide I:13-II:13), for which the EC50 at human NOP [1] was 1.62 nM; on human NOP [2] it was 0.302 nM. For the same molecule, the “Ca^2+ mobilization E max ± sem” value on human NOP [1] was 247 ± 39 % over the baseline.
